Assay results reported in patent US11071300B2, “Pesticidally active pyrazole derivatives” (SYNGENTA PARTICIPATIONS AG, priority 2017, dated 2021).
Read-outs that look alike come from different tables or passages of the source.

Columns and labels:
Assay type in all cases: in vivo
Spodoptera littoralis = Spodoptera littoralis (Egyptian cotton leaf worm) leaf disc test; conditions: foliar, 72 h, application rate 200 ppm, cotton leaf discs sprayed, L1 larvae, 3 days after infestation, read-out: control (at least one of mortality, anti-feedant effect, growth inhibition)
Protocol: Spodoptera littoralis (Egyptian Cotton Leaf Worm)
Cotton leaf discs were placed on agar in 24-well microtiter plates and sprayed with aqueous test solutions prepared from 10′000 ppm DMSO stock solutions. After drying the leaf discs were infested with five L1 larvae. The samples were assessed for mortality, anti-feedant effect, and growth inhibition in comparison to untreated samples 3 days after infestation. Control of Spodoptera littoralis by a test sample is when at least one of mortality, anti-feedant effect, and growth inhibition is higher than the untreated sample.

Plutella xylostella = Plutella xylostella (diamond back moth) artificial diet test; conditions: 120 h, read-out: control (mortality and growth inhibition)
Protocol: Plutella xylostella (Diamond Back Moth):
(§1) 24-well microtiter plates with artificial diet were treated with aqueous test solutions prepared from 10′000 ppm DMSO stock solutions by pipetting. After drying, the plates were infested with L2 larvae (10 to 15 per well). The samples were assessed for mortality and growth inhibition in comparison to untreated samples 5 days after infestation.

Diabrotica Balteata = experiment: Diabrotica balteata (corn root worm) maize sprout test; conditions: 96 h, read-out: control (mortality and growth inhibition)
Protocol: Diabrotica Balteata, (Corn Root Worm)
as §1, with “Maize sprouts, placed on an agar layer in 24-well” for “24-well”, “plates” for “plates with artificial diet”, “spraying.” for “pipetting.”, “(6” for “(10”, “10” for “15”, “4” for “5”

Thrips tabaci = Thrips tabaci (onion thrips) leaf disc test; conditions: foliar, 144 h, read-out: control (mortality)
Protocol: Thrips tabaci (Onion Thrips):
(§2) Sunflower leaf discs were placed on agar in 24-well microtiter plates and sprayed with aqueous test solutions prepared from 10′000 ppm DMSO stock solutions. After drying the leaf discs were infested with a thrips population of mixed ages. The samples were assessed for mortality 6 days after infestation.

Euschistus heros = Euschistus heros (neotropical brown stink bug) soybean leaf test; conditions: 120 h, read-out: control (mortality and growth inhibition)
Protocol: Euschistus heros (Neotropical Brown Stink Bug):
Soybean leaves on agar in 24-well microtiter plates were sprayed with aqueous test solutions prepared from 10′000 ppm DMSO stock solutions. After drying the leaves were infested with N2 nymphs. The samples were assessed for mortality and growth inhibition in comparison to untreated samples 5 days after infestation.

Myzus persicae = Myzus persicae (green peach aphid) leaf disc test; conditions: foliar, 144 h, application rate 200 ppm, sunflower leaf discs sprayed, mixed ages, 6 DAT, read-out: control (mortality)
Protocol: Myzus persicae (Green Peach Aphid):
Sunflower leaf discs were placed on agar in a 24-well microtiter plate and sprayed with test solutions at an application rate of 200 ppm. After drying, the leaf discs were infested with an aphid population of mixed ages. After an incubation period of 6 DAT, samples were checked for mortality.

Tetranychus urticae = Tetranychus urticae (two-spotted spider mite) leaf disc test; conditions: foliar, 192 h, application rate 200 ppm, bean leaf discs sprayed, 8 days after infestation, read-out: control (mortality on mixed population, mobile stages)
Protocol: Tetranychus urticae (Two-Spotted Spider Mite):
as §2, with “Bean” for “Sunflower”, “discs” for “discs were placed”, “were” for “and”, “mite” for “thrips”, “on mixed population (mobile stages) 8” for “6”

[1] = application rate 200 ppm, artificial diet, L2 larvae, 5 days after infestation
[2] = application rate 200 ppm, maize sprouts sprayed, L2 larvae, 4 days after infestation
[3] = application rate 200 ppm, sunflower leaf discs sprayed, mixed ages, 6 days after infestation
[4] = application rate 200 ppm, soybean leaves sprayed, N2 nymphs, 5 days after infestation

CCOCN(C(=O)c1cc(-c2cnn(-c3c(C(F)(F)F)c(OS(=O)(=O)C(F)(C(F)(F)F)C(F)(F)F)nn3C)c2)ccc1Cl)C1(C#N)CC1 [Compound 47, [5-[4-[4-chloro-3-[(1-cyanocyclopropyl)-(ethoxymethyl)carbamoyl]phenyl]pyrazol-1-yl]-1-methyl-4-(trifluoromethyl)pyrazol-3-yl] 1,1,1,2,3,3,3-heptafluoropropane-2-sulfonate]
≥ 80%: percent control (mortality, anti-feedant effect or growth inhibition) at 200 ppm (Spodoptera littoralis) | mortality at 200 ppm (Plutella xylostella; [1]) | mortality at 200 ppm (Diabrotica Balteata; [2]) | mortality at 200 ppm (Thrips tabaci; [3]) | mortality at 200 ppm (Euschistus heros; [4]) | mortality at 200 ppm (Myzus persicae)

CN(C(=O)c1cc(-c2cnn(-c3c(C(F)(F)F)c(OS(=O)(=O)C(F)(F)C(F)(F)C(F)(F)C(F)(F)F)nn3C)c2)ccc1Cl)C1(C#N)CC1 [Compound 6, [5-[4-[4-chloro-3-[(1-cyanocyclopropyl)-methyl-carbamoyl]phenyl]pyrazol-1-yl]-1-methyl-4-(trifluoromethyl)pyrazol-3-yl] 1,1,2,2,3,3,4,4,4-nonafluorobutane-1-sulfonate]
≥ 80%: percent control (mortality, anti-feedant effect or growth inhibition) at 200 ppm (Spodoptera littoralis) | mortality at 200 ppm (Plutella xylostella) | mortality at 200 ppm (Diabrotica Balteata) | mortality at 200 ppm (Thrips tabaci) | mortality at 200 ppm (Euschistus heros)

Cn1nc(OS(=O)(=O)C(F)(C(F)(F)F)C(F)(F)F)c(C(F)(F)F)c1-n1cc(-c2ccc(Cl)c(C(=O)NC3(CC#N)CC3)c2)cn1 [Compound 68, [5-[4-[4-chloro-3-[[1-(cyanomethyl)cyclopropyl]carbamoyl]phenyl]pyrazol-1-yl]-1-methyl-4-(trifluoromethyl)pyrazol-3-yl] 1,1,1,2,3,3,3-heptafluoropropane-2-sulfonate]
≥ 80%: percent control (mortality, anti-feedant effect or growth inhibition) at 200 ppm (Spodoptera littoralis) | mortality at 200 ppm (Plutella xylostella; [1]) | mortality at 200 ppm (Tetranychus urticae) | mortality at 200 ppm (Euschistus heros; [4])

Cn1nc(OS(=O)(=O)C(F)(C(F)(F)F)C(F)(F)F)c(C(F)(F)F)c1-n1cc(-c2ccc(Cl)c(C(=O)NC3CC3)c2)cn1 [Compound 5, [5-[4-[4-chloro-3-(cyclopropylcarbamoyl)phenyl]pyrazol-1-yl]-1-methyl-4-(trifluoromethyl)pyrazol-3-yl] 1,1,1,2,3,3,3-heptafluoropropane-2-sulfonate]
≥ 80%: percent control (mortality, anti-feedant effect or growth inhibition) at 200 ppm (Spodoptera littoralis) | mortality at 200 ppm (Plutella xylostella; [1]) | mortality at 200 ppm (Diabrotica Balteata; [2]) | mortality at 200 ppm (Thrips tabaci; [3]) | mortality at 200 ppm (Tetranychus urticae) | mortality at 200 ppm (Euschistus heros; [4]) | mortality at 200 ppm (Myzus persicae)

Cn1nc(OS(=O)(=O)C(F)(C(F)(F)F)C(F)(F)F)c(C(F)(F)F)c1-n1cc(-c2cnc(Cl)c(C(=O)NC3CC3)c2)cn1 [Compound 21, [5-[4-[6-chloro-5-(cyclopropylcarbamoyl)-3-pyridyl]pyrazol-1-yl]-1-methyl-4-(trifluoromethyl)pyrazol-3-yl] 1,1,1,2,3,3,3-heptafluoropropane-2-sulfonate]
≥ 80%: percent control (mortality, anti-feedant effect or growth inhibition) at 200 ppm (Spodoptera littoralis) | mortality at 200 ppm (Plutella xylostella; [1]) | mortality at 200 ppm (Diabrotica Balteata; [2]) | mortality at 200 ppm (Thrips tabaci; [3]) | mortality at 200 ppm (Tetranychus urticae) | mortality at 200 ppm (Euschistus heros; [4]) | mortality at 200 ppm (Myzus persicae)

Cn1nc(OS(=O)(=O)C(F)(C(F)(F)F)C(F)(F)F)c(C(F)(F)F)c1-n1cc(-c2ccc(Cl)c(C(=O)NC3(C(F)(F)F)CC3)c2)cn1 [Compound 65, [5-[4-[4-chloro-3-[[1-(trifluoromethyl)cyclopropyl]carbamoyl]phenyl]pyrazol-1-yl]-1-methyl-4-(trifluoromethyl)pyrazol-3-yl] 1,1,1,2,3,3,3-heptafluoropropane-2-sulfonate]
≥ 80%: percent control (mortality, anti-feedant effect or growth inhibition) at 200 ppm (Spodoptera littoralis) | mortality at 200 ppm (Plutella xylostella; [1]) | mortality at 200 ppm (Tetranychus urticae) | mortality at 200 ppm (Euschistus heros; [4])

Cn1nc(OS(=O)(=O)C(F)(C(F)(F)F)C(F)(F)F)c(C(F)(F)F)c1-n1cc(-c2ccc(Cl)c(C(=O)N(C(=O)C(C)(C)C)C3(C#N)CC3)c2)cn1 [Compound 59, [5-[4-[4-chloro-3-[(1-cyanocyclopropyl)-(2,2-dimethylpropanoyl)carbamoyl]phenyl]pyrazol-1-yl]-1-methyl-4-(trifluoromethyl)pyrazol-3-yl] 1,1,1,2,3,3,3-heptafluoropropane-2-sulfonate]
≥ 80%: percent control (mortality, anti-feedant effect or growth inhibition) at 200 ppm (Spodoptera littoralis) | mortality at 200 ppm (Plutella xylostella; [1]) | mortality at 200 ppm (Diabrotica Balteata; [2]) | mortality at 200 ppm (Thrips tabaci; [3]) | mortality at 200 ppm (Tetranychus urticae) | mortality at 200 ppm (Euschistus heros; [4]) | mortality at 200 ppm (Myzus persicae)

Cn1nc(OS(=O)(=O)C(F)(C(F)(F)F)C(F)(F)F)c(C(F)(F)F)c1-n1cc(-c2ccc(Cl)c(C(=O)N[C@H]3C[C@@H]3C#N)c2)cn1 (racemic) [Compound 69, (rac)-[5-[4-[4-chloro-3-[[(1S,2S)-2-cyanocyclopropyl]carbamoyl]phenyl]pyrazol-1-yl]-1-methyl-4-(trifluoromethyl)pyrazol-3-yl] 1,1,1,2,3,3,3-heptafluoropropane-2-sulfonate]
≥ 80%: percent control (mortality, anti-feedant effect or growth inhibition) at 200 ppm (Spodoptera littoralis) | mortality at 200 ppm (Plutella xylostella; [1]) | mortality at 200 ppm (Tetranychus urticae) | mortality at 200 ppm (Euschistus heros; [4]) | mortality at 200 ppm (Myzus persicae)

CCN(C(=O)c1cc(-c2cc(-c3c(C(F)(F)F)c(OS(=O)(=O)C(F)(C(F)(F)F)C(F)(F)F)nn3C)no2)ccc1Cl)C1(C#N)CC1 [Compound 38, [5-[5-[4-chloro-3-[(1-cyanocyclopropyl)-ethyl-carbamoyl]phenyl]isoxazol-3-yl]-1-methyl-4-(trifluoromethyl)pyrazol-3-yl] 1,1,1,2,3,3,3-heptafluoropropane-2-sulfonate]
≥ 80%: percent control (mortality, anti-feedant effect or growth inhibition) at 200 ppm (Spodoptera littoralis) | mortality at 200 ppm (Plutella xylostella; [1]) | mortality at 200 ppm (Tetranychus urticae) | mortality at 200 ppm (Euschistus heros; [4]) | mortality at 200 ppm (Myzus persicae)

Cn1nc(OS(=O)(=O)C(F)(F)C(F)(F)F)c(C(F)(F)F)c1-n1cc(-c2ccc(Cl)c(C(=O)NC3(C#N)CC3)c2)cn1 [Compound 1, [5-[4-[4-chloro-3-[(1-cyanocyclopropyl)carbamoyl]phenyl]pyrazol-1-yl]-1-methyl-4-(trifluoromethyl)pyrazol-3-yl] 1,1,2,2,2-pentafluoroethanesulfonate]
≥ 80%: percent control (mortality, anti-feedant effect or growth inhibition) at 200 ppm (Spodoptera littoralis) | mortality at 200 ppm (Plutella xylostella; [1]) | mortality at 200 ppm (Diabrotica Balteata; [2]) | mortality at 200 ppm (Tetranychus urticae) | mortality at 200 ppm (Euschistus heros; [4])

CCN(C(=O)c1cc(-c2cnn(-c3c(C(F)(F)F)c(OS(=O)(=O)C(F)(F)C(F)(F)C(F)(F)C(F)(F)F)nn3C)c2)cnc1Cl)C1(C#N)CC1 [Compound 32, [5-[4-[6-chloro-5-[(1-cyanocyclopropyl)-ethyl-carbamoyl]-3-pyridyl]pyrazol-1-yl]-1-methyl-4-(trifluoromethyl)pyrazol-3-yl] 1,1,2,2,3,3,4,4,4-nonafluorobutane-1-sulfonate]
≥ 80%: percent control (mortality, anti-feedant effect or growth inhibition) at 200 ppm (Spodoptera littoralis) | mortality at 200 ppm (Plutella xylostella) | mortality at 200 ppm (Diabrotica Balteata) | mortality at 200 ppm (Thrips tabaci) | mortality at 200 ppm (Euschistus heros)

CCN(C(=O)c1cc(-c2cnn(-c3c(C(F)(F)F)c(OS(=O)(=O)C(F)(C(F)(F)F)C(F)(F)F)nn3C)c2)cnc1Cl)C1(C#N)CC1 [Compound 26, [5-[4-[6-chloro-5-[(1-cyanocyclopropyl)-ethyl-carbamoyl]-3-pyridyl]pyrazol-1-yl]-1-methyl-4-(trifluoromethyl)pyrazol-3-yl] 1,1,1,2,3,3,3-heptafluoropropane-2-sulfonate]
≥ 80%: percent control (mortality, anti-feedant effect or growth inhibition) at 200 ppm (Spodoptera littoralis) | mortality at 200 ppm (Plutella xylostella; [1]) | mortality at 200 ppm (Diabrotica Balteata; [2]) | mortality at 200 ppm (Thrips tabaci; [3]) | mortality at 200 ppm (Tetranychus urticae) | mortality at 200 ppm (Myzus persicae)
